“And” between values parts separate entries of the source, which are not always exact repeats. Equal values may be shown once.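 Method: 48-hour compound exposure of cells in 96-well plates, five concentrations, linear interpolation of endpoints. The concentration for 50% growth inhibition is given as GI50. TGI denotes the concentration required for complete inhibition of growth.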
Key:
Experiment in all cases: NCI anticancer screen, dose series, 48 h
[1] = tested on: SW-620 colon
[2] = tested on: SNB-19 CNS
[3] = tested on: SR leukemia
[4] = tested on: CAKI-1 renal
[5] = tested on: OVCAR-5 ovarian
[6] = tested on: HOP-62 NSCLC
[7] = tested on: HOP-92 NSCLC
[8] = tested on: SK-MEL-5 melanoma
[9] = tested on: NCI-H23 lung
[10] = tested on: SK-MEL-28 melanoma

Row | SMILES | TGI [1] | TGI [2] | TGI [3] | TGI [4] | TGI [5] | TGI [6] | TGI [7] | TGI [8] | TGI [9] | TGI [10] | GI50 [1] | GI50 [2] | GI50 [3] | GI50 [4] | GI50 [5] | GI50 [6] | GI50 [7] | GI50 [8] | GI50 [9] | GI50 [10]
1 | CCC(c1ccccc1)c1cc(C(C)(C)C)cc(C(C)(C)C)c1O (stereo not given) | 30.5 µM | 32.7 µM | > 100 µM | 29.8 µM | 26.6 µM | 29.7 µM | 30.1 µM | 32.7 µM | 30.9 µM | 32.5 µM | – | – | – | – | – | – | – | – | – | –
2 | Cc1c(-c2ccccn2)ccc2ccccc12 | > 100 µM | > 100 µM | > 100 µM | > 100 µM | > 100 µM | > 100 µM | > 100 µM | > 100 µM | > 100 µM | > 100 µM | – | – | – | – | – | – | – | – | – | –
3 | CC(=O)c1c(C)c2cnc(Nc3ccc(N4CCNCC4)cn3)nc2n(C2CCCC2)c1=O | 19.1 µM | 25.4 µM | 20.7 µM | 17.2 µM | 22.3 µM | 26.2 µM | 22.8 µM | 9.94 µM | 27 µM | 25.7 µM | 0.332 µM | 11.7 µM | 1.88 µM | 1.61 µM | 8.59 µM | 12.8 µM | 0.803 µM | 2.58 µM | 11.1 µM | 12.3 µM
4 | O=C1/C(=C/c2ccc([N+](=O)[O-])o2)Oc2ccc(Cl)cc21 | 1.99 µM | 16.7 µM | 1.26 µM | 3.61 µM | 7.5 µM | 23.9 µM | 3.31 µM | 3.03 µM | 5.07 µM | 3.38 µM | 0.541 µM | 3.94 µM | 0.267 µM | 1.7 µM | 2.63 µM | 4.53 µM | 1.45 µM | 1.58 µM | 2.11 µM | 1.71 µM
5 | COc1cc(C2NC(=O)C(C#N)=C(Nc3cccc(C)c3)S2)ccc1O (stereo not given) | > 100 µM | > 100 µM | > 100 µM | > 100 µM | > 100 µM | > 100 µM | > 100 µM | > 100 µM | > 100 µM | > 100 µM | > 100 µM | > 100 µM | > 100 µM | > 100 µM | > 100 µM | > 100 µM | > 100 µM | > 100 µM | > 100 µM | > 100 µM
6 | COc1cc(C(=O)n2nc(N)c3c(C)cc(C)nc32)cc(OC)c1OC | > 100 µM | > 100 µM | > 100 µM | > 100 µM | > 100 µM | > 100 µM | > 100 µM | > 100 µM | > 100 µM | > 100 µM | 2.48 µM | > 100 µM | 0.784 µM | > 100 µM | > 100 µM | 40.8 µM | > 100 µM | 35.2 µM | > 100 µM | > 100 µM
7 | CCCCCCCCN=C(NCCCCCCCC)SCc1cccc2ccccc12 | 3.36 µM | 3.45 µM | 2.39 µM | 2.97 µM | 2.79 µM | 3.13 µM | 2.28 µM | 2.8 µM | 2.52 µM | 3.44 µM | 1.65 µM | 1.83 µM | 0.427 µM | 1.56 µM | 1.36 µM | 1.71 µM | 1.03 µM | 1.47 µM | 1.14 µM | 1.95 µM
8 | COc1ccc2c(c1)/C(=N/OC(C)=O)c1c-2c(OC)nc2ccccc12 | > 100 µM | > 100 µM | > 100 µM | > 100 µM | > 100 µM | > 100 µM | 82.3 µM | > 100 µM | > 100 µM | > 100 µM | > 100 µM | > 100 µM | 21.6 µM | > 100 µM | > 100 µM | 83.7 µM | 22.5 µM | > 100 µM | > 100 µM | > 100 µM
9 | Cc1ccc(-c2nc3sc(C)cn3c2/C=C2\C(=O)Nc3ccc(Cl)cc32)cc1 | 52.1 µM | 27.7 µM | 36.7 µM | 38.2 µM | 38.5 µM | 20.8 µM | 25.1 µM | 30.4 µM | 26 µM | 34.5 µM | 19.1 µM | 10.6 µM | 10.8 µM | 17 µM | 18.8 µM | 7.21 µM | 7.66 µM | 15.5 µM | 12.4 µM | 18 µM
10 | Cc1c(C(N)=O)sc2nc(C)n(/N=c3\scc(-c4ccccc4)n3Cc3ccccc3)c(=O)c12 | > 100 µM | > 100 µM | > 100 µM | > 100 µM | > 100 µM | 9.47 µM | 5.33 µM | 3.75 µM | > 100 µM | > 100 µM | 3.16 µM | 4.8 µM | 5.74 µM | 3.35 µM | 4.33 µM | 2.82 µM | 1.34 µM | 1.81 µM | 3.12 µM | 3.56 µM
11 | COc1ccc(-c2[nH]ncc2Nc2cc(OC)c(OC)c(OC)c2)cc1 | > 100 µM | > 100 µM | > 100 µM | > 100 µM | > 100 µM | > 95.3 µM | > 100 µM | 23 µM | > 100 µM | > 100 µM | 0.558 µM | 4.86 µM | 0.36 µM | 5.64 µM | 5.26 µM | 3.32 µM | > 62.9 µM | 1.34 µM | 4.04 µM | 2.57 µM
12 | COc1ccc2c(c1)[n+]([O-])c(-c1ccccc1Cl)c(N)[n+]2[O-] | > 100 µM | > 100 µM | > 100 µM | > 100 µM | > 100 µM | > 100 µM | > 100 µM | > 100 µM | > 100 µM | > 100 µM | – | – | – | – | – | – | – | – | – | –
13 | CCS(=O)(=O)c1ccc(OC)c(Nc2ncc(-c3cccc(F)c3)o2)c1 | > 25 µM | > 25 µM | > 25 µM | > 25 µM | > 25 µM | > 25 µM | > 25 µM | > 25 µM | > 25 µM | > 25 µM | > 25 µM | > 25 µM | > 25 µM | > 25 µM | > 25 µM | > 25 µM | > 25 µM | > 25 µM | > 25 µM | > 25 µM
14 | CC(=O)Nc1ccc(/C=c2\sc3nnc(-c4cccnc4)n3c2=O)cc1 | 34.2 µM | 77.2 µM | 46.7 µM | 35.3 µM | 67.1 µM | 52.6 µM | 44.2 µM | 37.8 µM | 31.4 µM | 33 µM | – | – | – | – | – | – | – | – | – | –
15 | CC1(C)C(=O)/C=C\C(=O)C(C)(C)C(=O)/C=C\C(=O)C(C)(C)C2=CC=C(O2)C(C)(C)C(=O)/C=C\C1=O | 3.59 µM | 30.6 µM | 4.05 µM | 7.91 µM | 37.1 µM | 44.7 µM | 3.9 µM | 21.2 µM | 15.6 µM | 10 µM | – | – | – | – | – | – | – | – | – | –
16 | COc1ccc2c(c1)nnc1c3cccnc3[nH]c21 | – | 18.7 µM and 33.4 µM | – | – | 20.2 µM and > 100 µM | 16.1 µM and > 100 µM | 1.11 µM and 3.26 µM | 12.6 µM and 18.9 µM | 14.1 µM and 14.9 µM | 50 µM and > 100 µM | 0.378 µM and 0.978 µM | 7.61 µM and 9.99 µM | 0.0313 µM and 0.0336 µM | 0.108 µM and 0.594 µM | 5.72 µM and 35.4 µM | 5.47 µM and 26 µM | 0.0817 µM and 0.131 µM | 5.85 µM and 4.04 µM | 5.5 µM and 3.04 µM | 11.8 µM and 11.2 µM
17 | CSc1nc(SC)c2c(C)cn(COCCOC(=O)c3ccccc3)c2n1 | > 100 µM | > 100 µM | > 100 µM | > 100 µM | > 100 µM | > 100 µM | 99.7 µM | > 100 µM | > 100 µM | > 100 µM | – | – | – | – | – | – | – | – | – | –
18 | N=C(CC(=O)Nc1ccccn1)c1ccccc1 | > 100 µM | > 100 µM | > 100 µM | > 100 µM | > 100 µM | > 100 µM | > 100 µM | > 100 µM | > 100 µM | > 100 µM | – | – | – | – | – | – | – | – | – | –
19 | O=C1NC(=NCCc2ccc(Br)cc2)S/C1=C\c1ccc2ncccc2c1 | > 25 µM | > 25 µM | > 25 µM | > 25 µM | > 25 µM | > 25 µM | > 25 µM | > 25 µM | > 25 µM | > 25 µM | > 25 µM | > 25 µM | 7.31 µM | > 20.3 µM | > 25 µM | > 25 µM | > 25 µM | > 21 µM | > 25 µM | > 25 µM
20 | NS(=O)(=O)c1ccc(N=Nc2c[nH]c(=O)c(O)c2)cc1 | > 100 µM | > 100 µM | > 100 µM | > 100 µM | > 100 µM | > 100 µM | > 100 µM | > 100 µM | > 100 µM | > 100 µM | – | – | – | – | – | – | – | – | – | –
21 | COc1ccc2c(c1)C(=O)c1c-2n(CCCN(C)C)c(=O)c2cc([N+](=O)[O-])ccc12 | 1.34 µM | 7.93 µM | – | – | 0.394 µM | < 0.0447 µM | 1.44 µM | < 0.012 µM | 0.0849 µM | 2.59 µM | < 0.01 µM | < 0.01 µM | < 0.01 µM | < 0.01 µM | 0.0235 µM | < 0.01 µM | 0.0329 µM | < 0.01 µM | < 0.01 µM | 0.192 µM
22 | CCC(=O)Nc1nnc(Cc2ccc(OC)c(OC)c2)s1 | > 100 µM | > 100 µM | > 100 µM | > 100 µM | > 100 µM | > 100 µM | > 100 µM | > 100 µM | > 100 µM | > 100 µM | > 100 µM | > 100 µM | > 100 µM | > 100 µM | > 100 µM | > 100 µM | 78.7 µM | > 100 µM | > 100 µM | > 100 µM
23 | CCCCOC(=O)NC(=O)c1cn(CCCOC(=O)CCCCCCCCC(=O)OCCCn2cc(C(=O)NC(=O)OCCCC)c(=O)n(C)c2=O)c(=O)n(C)c1=O | > 100 µM | > 100 µM | > 100 µM | > 100 µM | > 100 µM | > 100 µM | > 100 µM | > 100 µM | > 100 µM | > 100 µM | – | – | – | – | – | – | – | – | – | –

Reference: PubChem BioAssay (NCI)
